From patent US9351963B2, “Defensin-like molecules as novel antimicrobial agents” (UNIVERSITY OF MARYLAND, BALTIMORE, priority 2010, dated 2016)

Columns and labels:
E. coli = assay: Broth microdilution MIC (CLSI, Micromyx), E. coli; format: cell-based; conditions: Escherichia coli
Experimental: (§1) The antibacterial activity of defensin mimetics against Staphylococcus aureus ATCC 29213 and Escherichia coli 25922 was carried out in a 96-well turbidimetric assay essentially as described (Ericksen, B., Wu, Z., Lu, W., and Lehrer, R. I. (2005) Antimicrob Agents Chemother 49, 269-275) with the following modifications: compounds were exposed for 30 min to […] prior to addition of […] in 10 mM phosphate buffer containing 5% DMSO. Bacterial growth was monitored for 12 hours and data were analyzed as described (Ericksen, et al). Determination of MICs was performed by Micromyx, LLC (Kalamazoo, Mich.) according to CLSI standards (CLSI. (2009) Methods for Dilution Antimicrobial Susceptibility Tests for Bacteria That Grow Aerobically; Approved Standard—Eighth Edition.)
To confirm the antibacterial killing assays, Minimal Inhibitory Concentrations (MICs, μg/ml) were determined for lead compounds against clinically relevant bacterial strains (Table 3, FIG. 11). […] Experiments were carried out according to CLSI standards (CLSI. (2009) Methods for Dilution Antimicrobial Susceptibility Tests for Bacteria That Grow Aerobically; Approved Standard—Eighth Edition.) by Micromyx, LLC (Kalamazoo, Mich.). […] There was no significant difference for any compound when evaluated against clinically relevant strains (e.g. MRSA, VRE, PRSP).

S. aureus ATCC 29213 [1] = assay: Murine peritoneal sepsis model; format: in vivo, C57BL/6J mice
Experimental: Adult C57BL/6J mice (˜18 grams, 8-10 weeks old) were used for all experiments. Mice were obtained from the Jackson Laboratory (Bar Harbour, Me., USA) and housed in the IHV SPC animal core facility. Mice were fed standard chow (Harlan Laboratories) and water ad libitum. To assess the protective potency of defensin mimetic BAS00127538, groups of 5 mice were inoculated intraperitoneally ˜10^7 CFU/mL of S. aureus ATCC 29213 in 500 μL saline solution/25% DMSO plus 4.5% (w/v) porcine gastric mucin (Sigma Chemical Co., St Louis, Mo.). Infected animals (n=5) were subsequently treated by intra-peritoneal injection 1 and 4 hours post-infection with 2.5 mg/kg of compound in 100 μL sterile saline solution plus 25% DMSO (V/V), vancomycin/lysostaphin (5 mg/kg, saline solution/25% DMSO) or vehicle (saline solution/25% DMSO) as positive and negative controls respectively. Animals were closely observed during a period of 24 hours and mice that show signs of severe sepsis were humanely euthanized. Blood samples were collected by retro-orbital puncture at the indicated intervals post-infection using lithium-heparin polystyrene tubes to prevent coagulation. Spleens were harvested aseptically, weighed and homogenized in 500 μl of sterile saline solution using an IKA T10 basic disperser (IKA, Wilmington N.C.). Whole blood samples and spleen homogenates were serially diluted and plated onto LB agar plates. Bacterial counts were determined following 24 h incubation at 37° C. and expressed as CFU per milliliter for blood and CFU per gram for spleen.
Next, a murine model for sepsis was established to evaluate the efficacy of the lead defensin mimetics as antibiotic agents in vivo. […] Mice (n=5) were inoculated intraperitoneally with S. aureus 29213 and treated 1 h and 4 h post-infection with compound BAS00127538 at 2.5 mg/kg intraperitoneally Animals were monitored for survival and blood and spleen samples were collected. Bacterial counts were determined and compared to control treatment with vancomycin/lysostaphin as measures of efficacy (FIG. 6).

[2] = system: Escherichia coli ATCC 25922; assay: 96-well turbidimetric antibacterial killing assay, E. coli; format: cell-based; conditions: E. coli
Experimental: as §1
The inventors have previously reported on the antibacterial activity of HNP1 and all of its structurally uncompromised single alanine mutants against S. aureus (Wei, G., Pazgier, M., de Leeuw, E., Rajabi, M., Li, J., Zou, G., Jung, G., Yuan, W., Lu, W. Y., Lehrer, R. I., and Lu, W. J Biol Chem 285, 16275-16285). […] If these residues are indeed important for Lipid II binding, one would expect that replacement by alanine will not affect killing of Gram-negative bacteria. […] In particular, FIG. 12 depicts killing of E. coli by HNP-1 Lipid II single alanine mutants. Survival curves of E. coli ATCC 25922 exposed to HNP-1 or HNP-1 single alanine mutants at concentrations varying two-fold from […]. Bacteria were exposed to defensin peptides for 120 min. Each curve is the mean of two separate experiments (±S.D.). Points scored as zero survival could not be plotted.

[3] = system: Staphylococcus aureus ATCC 29213; assay: 96-well turbidimetric antibacterial killing assay, S. aureus; format: cell-based
Experimental: as §1

S. aureus ATCC 29213 [4] = assay: Murine peritoneal sepsis model; format: in vivo, C57BL/6J mice; conditions: 5 mg/kg intraperitoneally, preliminary experiments (not shown)

In the case of CN1/C(=C/C=C/c2cc(-c3ccccc3)cc(-c3ccccc3)[o+]2)C(C)(C)c2ccccc21 [BAS00127538, 2,4-diphenyl-6-[(1E)-3-[(2E)-1,3,3-trimethyl-2,3-dihydro-1H-indol-2-ylidene]prop-1-en-1-yl]-1$1^4-pyran-1-ylium], the MIC (E. coli) is reported as 4 µg/mL, the “Bacterial counts in spleen and blood” value (S. aureus ATCC 29213 [1]; 2.5 mg/kg intraperitoneally 1 h and 4 h post-infection) is reported as “significantly reduced” and the Survival of animals (S. aureus ATCC 29213 [1]; 2.5 mg/kg intraperitoneally 1 h and 4 h post-infection, n=5 mice) is reported as 4 out of five. The “Efficacy in vivo in a murine model for sepsis” value (S. aureus ATCC 29213 [1]; mouse, in vivo) was “proven effective”, the “Concentration at which compound was 100% bactericidal against E. coli” value [2] was 7.8 µM and the “Concentration at which compound was 100% bactericidal against S. aureus” value [3] was 0.244 µM. For the same molecule, the “Clearing non-lethal doses of S. aureus 29213” value (S. aureus ATCC 29213 [4]) was “most efficacious”.
